Laboratory results from US20240245677A1, “SELECTED COMPOUNDS FOR TARGETED DEGRADATION OF BRD9” (C4 THERAPEUTICS, INC., priority 2021, published 2024).
Read-outs that look alike come from different tables or passages of the source.

Target: T1, BRD4 (Homo sapiens, UniProt O60885)
T1 construct: endogenously expressing BRD4 with HiBiT fusion tag via CRISPR; endogenous in cells; host or cells: HEK293T.92 (made in-house from 293T, ATCC CRL-3216)
Assay: BRD4 HiBiT degradation assay in HEK293T.92 cells
Assay type: cell-based
From the text: This assay evaluates the degradation of Bromodomain Containing 4 (BRD4) induced by treatment with Compound 1 as measured by luminescence using Nano-Glo® HiBiT Lytic Assay System in HEK293 cells CRISPR-edited to endogenously express HiBiT tagged BRD4.
Nano-Glo® HiBiT Lytic Assay System was purchased from Promega (Catalog No. N3050, Madison, WI, USA). 293T cells were obtained from ATCC (Catalog No. CRL-3216, Manassas, VA, USA), and maintained in Dulbecco's modified Eagle medium (DMEM) (Catalog No. 12430112, ThermoFisher Scientific, Waltham, MA, USA) supplemented with 10% fetal bovine serum (FBS) (Catalog No. 16000-044, Gibco, Grand Island, NY, USA) at 37° C. in an atmosphere of 5% CO2 in air. The HiBiT polypeptide tag was introduced into the N-terminus of the endogenous BRD4 locus by CRISPR-Cas9 to produce the modified HEK293T.92 cell line. The HiBiT polypeptide allows reconstitution of NanoBiT enzyme following cell lysis and addition of the complementing LgBiT polypeptide that activates substrate to produce a luminescent signal that is directly proportional to the amount of HiBiT-tagged BRD4.
The HEK293T.92 cells were routinely sub-cultured to maintain cell density between 30-80% confluence, not to exceed 20 passages. Cells were washed with PBS pH 7.4 (Catalog No. 10010049, ThermoFisher Scientific, Waltham, MA, USA), trypsinized for 5 minutes at 37° C., and resuspended in fresh growth media without phenol red. An aliquot was diluted 2× with Trypan Blue solution 0.4% (Catalog No. 15250061, ThermoFisher Scientific, Waltham, MA, USA) and cell count determined. Cell concentration was adjusted with growth media without phenol red to 5.0×10^5 cells/mL.
Compound 1 was prepared by dissolving neat compounds in DMSO (Catalog No. D8418, Sigma-Aldrich, Inc., St. Louis, MO, USA) to generate 10 mM stock solution and stored at −20° C. The 10 mM DMSO stock solution of Compound 1 was serially diluted (half log) in DMSO to generate 11-point dose series (10000, 3165, 1000, 316, 100, 31.6, 10, 3.2, 1, 0.32, 0.1 μM) in an acoustic ready 384-well low dead volume microplate (Catalog No. LP-0200, Beckman Coulter Life Sciences, Indianapolis, IN, USA). Using an Echo 550 Acoustic Liquid Handler (Beckman Coulter Life Sciences, Indianapolis, IN, USA), 30 nL of serially diluted compound solutions were dispensed in duplicate to each 384-well TC-treated microplate (Catalog No. 3571, Corning, Glendale, CA, USA). 30 nL DMSO was transferred to all control wells.
30 μL of 293T.92 cells suspended in growth media without phenol red at 5.0×10^5 cells/mL (15000 cells/well) were dispensed using a Multidrop Combi Reagent Dispenser (Catalog No. 5840300, ThermoFisher Scientific, Waltham, MA, USA) to each well of columns 1-23 of 384-well TC-treated microplates containing duplicate concentration range of test compounds and DMSO controls. 30 μL of media was dispensed to column 24 as background positive control (P). Plates were spun briefly at 1000 rpm and cells were incubated at 37° C., 5% CO2 for 24 hours. Final concentration of DMSO was 0.1% for all samples.
Cellular BRD4 protein level was determined based on quantification of HiBiT using Nano-Glo® HiBiT Lytic Assay System (Promega). 30 μL Nano-Glo Lytic Assay reagents were added to each well and luminescence was acquired on EnVision® Multilabel Reader (Catalog No. 2104-0010, Perkin Elmer Inc., Dumfries, VA, USA). Cells treated in the absence of the test compound (0.1% DMSO vehicle) were the negative control (N) and wells containing only media were the positive control (P).
Percent response of compound-treated samples (T) were calculated by normalizing to the DMSO treated negative (N) controls on the same microtiter plate after background (i.e., positive control) signal subtraction:
Curve fit and DC50 (concentration that degrades 50% BRD4) determination was performed by 4 parametric logistic fit analysis using software such as GraphPad Prism software (GraphPad Software, LLC, San Diego, CA, USA). […]

SMILES: COc1cc(-c2cn(C)c(=O)c(C)c2C)cc(OC)c1CN1CC[C@H](N2CCN(c3ccc(N[C@H]4CCC(=O)NC4=O)cc3F)CC2)C(F)(F)C1 [Compound 1, (S)-3-((4-(4-((S)-1-(2,6-dimethoxy-4-(1,4,5-trimethyl-6-oxo-1,6-dihydropyridin-3-yl)benzyl)-3,3-difluoropiperidin-4-yl)piperazin-1-yl)-3-fluorophenyl)amino)-piperidine-2,6-dione]
- % BRD4 Remaining Relative to Vehicle Control at 24 hr, Mean (0.101 nM): 96.1%
- % BRD4 Remaining Relative to Vehicle Control at 24 hr, Mean (0.318 nM): 96.3%
- % BRD4 Remaining Relative to Vehicle Control at 24 hr, Mean (1.01 nM): 96.3%
- % BRD4 Remaining Relative to Vehicle Control at 24 hr, Mean (3.17 nM): 96.1%
- % BRD4 Remaining Relative to Vehicle Control at 24 hr, Mean (10.0 nM): 96.0%
- % BRD4 Remaining Relative to Vehicle Control at 24 hr, Mean (31.7 nM): 96.4%
- % BRD4 Remaining Relative to Vehicle Control at 24 hr, Mean (100 nM): 95.8%
- % BRD4 Remaining Relative to Vehicle Control at 24 hr, Mean (317 nM): 92.5%
- % BRD4 Remaining Relative to Vehicle Control at 24 hr, Mean (1000 nM): 89.2%
- % BRD4 Remaining Relative to Vehicle Control at 24 hr, Mean (3161 nM): 84.4%
- % BRD4 Remaining Relative to Vehicle Control at 24 hr, Mean (9990 nM): 78.1%
- DC50 (BRD4-HiBiT, 293T.92 cells, 24 hours, read-out: Mean DC50): > 10 µM
- Emax (BRD4-HiBiT, 293T.92 cells, 24 hours, read-out: Mean Emax (%) ± SD): 78.1 ± 3.41%
- effect on the degradation of BRD4 (concentrations up to 10 μM, 24 hours): no significant effect
- DC50 (summary statement, read-out: DC50 against BRD4): > 1 µM
